Test results: patent US11219613B2, “Pharmaceutical composition for preventing and treating liver diseases, containing, as active ingredient, cromolyn or pharmaceutically acceptable salt thereof” (ONCOCROSS CO., LTD., priority 2015, dated 2022)
Like-named read-outs stand apart in the source and are kept apart here.

Assays:
[1] = test system: HSC-T6 cell line; experiment: MTT assay, cell proliferation; type: cell-based; conditions: for effect on proliferation at low level: HSC-T6, 0.1 μM; for proliferation activity: HSC-T6, increasing levels, compared to untreated control
Method: (§1) To confirm the proliferation activity on hepatic stellate cells, a MTT (3-(4,5-dimethylthiazol-2-yl)-2,5-diphenyltetrazolium bromide) assay was performed, and the HSC-T6 and LX2 cell lines obtained from <Example 1> above were used as hepatic stellate cells.
(§2) Specifically, the MTT assay was performed by seeding the cell suspensions of each cell onto a 96-well plate at a density of 5×10^4 cells/well. Then, the MIT stock solution (5 mg/mL) in which MTT was dissolved in PBS (phosphate-buffered saline, pH 7.2) was prepared, and 15 μL of the MTT solution was added to each well after filtration. After culturing for 4 hours at 37° C. and 5% CO2, the reaction was terminated by adding 185 μL of solubilization solution to each well, and then the cell viability was measured at an absorbance of 620 nm using an ELISA (enzyme-linked immunosorbent assay) reader. Furthermore, cell viability was measured by calculating the ratio of absorbance of the cells treated/untreated with the candidate agents.

[2] = test system: LX2 cell line; experiment: MTT assay, cell proliferation; type: cell-based; conditions: for effect on proliferation at low level: LX2, 0.1 μM; for proliferation activity: LX2, increasing levels, compared to untreated control
Method: as §1, §2

[3] = test system: HSC-T6 cell line
Method: (§3) Specifically, while gradually increasing the amounts of cromolyn and ionomycin in an independent cell culture medium, the amount of LDH released into the above culture medium was measured, and the experiment was conducted by using a LDH cytotoxicity assay kit (Cayman Chemical, USA) according to the method provided by the manufacturer. First, the cells were grown in DMEM (Dulbecco's Modified Eagle Medium), to which 10% of heat inactivated fetal bovine serum and 1% of penicillin and streptomycin were added, at 37° C. and 5% CO2. Then, the above cells were seeded in a 96-well plate at a density of 2×10^4/well. Cromolyn and ionomycin were added thereto in increasing amounts. After 48 hours, 100 μL of the supernatant from each well was transferred to the new plates, 100 μL of the reaction solution was added to each well, the plate was incubated with gentle shaking on an orbital shaker for 30 minutes at the room temperature, and then the absorbance was measured at 490 nm with a plate reader.

[4] = test system: LX-2 cell line
Method: as §3

[5] = test system: HSC-T6 cell line; experiment: Sirius Red total collagen detection; type: cell-based; conditions: HSC-T6, increasing level, 48 hours
Method: (§4) To confirm whether cromolyn inhibits the production of TGF-β and the accumulation of collagen, which are known as the major secretion marker of activated HSCs, LX-2 and HCT-T6 cell lines were analyzed by ELISA. Specifically, collagen was detected by using the Sirius Red Total Collagen Detection Kit (Chondrex, USA). The suspended cells were seeded in a 24-well plate at a density of 1×10^4 cells/well, and treated with various amounts of cromolyn for 48 hours. Then, the diluted solutions or standard samples were added to 1.5-mL centrifuge tubes in duplicate. Subsequently, each tube was incubated for 20 minutes at room temperature together with 500 μl of the Sirius Red solution. The supernatant was removed, the tubes were washed twice, and 200 μL of the final supernatant was transferred to a 96-well plate. The optical density was measured at 510-550 nm.

[6] = test system: LX-2 cell line; experiment: Sirius Red total collagen detection; type: cell-based; conditions: LX-2, increasing level, 48 hours
Method: as §4

[7] = test system: HSC-T6 cell line; experiment: TGF-β production by ELISA; type: cell-based; conditions: HSC-T6, different concentrations
Method: (§5) To confirm whether cromolyn inhibits the production of TGF-β and the accumulation of collagen, which are known as the major secretion marker of activated HSCs, LX-2 and HCT-T6 cell lines were analyzed by ELISA.

[8] = test system: LX-2 cell line; experiment: TGF-β production by ELISA; type: cell-based; conditions: LX-2, different concentrations
Method: as §5

[9] = test system: primary hepatocytes; experiment: wound assay, cell motility; type: cell-based, mouse
Method: (§6) Further, the experiment on hepatocytes was conducted by isolating the primary hepatocyte from the liver of a male C57BL6 mouse of around 6 weeks old.
The effect of cromolyn on restoration in hepatocytes was verified. […] Therefore, the present inventors confirmed the motility of primary hepatocytes by treating cromolyn in the presence and absence of TGF-β, which induces EMT.
(§7) Specifically, cell motility according to treatment with cromolyn was analyzed by using the known wound assay in the presence and absence of TGF-β (2 ng/mL), and the healing distance of the wound was measured by […]. Further, after treating with TGF-β and cromolyn, changes in the E-cadherin expression was verified, which was confirmed by treating primary hepatocytes with TGF-β (Carl Bio Chem, USA) and then conducting Western Blots using the antibody against E-cadherin (H-180) (Santa Cruz, USA). In addition, tubulin was used as the loading control.

[10] = test system: E-cadherin in primary hepatocytes; experiment: E-cadherin expression by Western Blots; type: cell-based, mouse; conditions: primary hepatocytes treated with TGF-β
Method: as §6, §7

[11] = test system: primary hepatocytes; experiment: SA-β-gal (Senescence β-galactosidase) staining; type: cell-based, mouse; conditions: three days in vitro culture
Method: as §6
Since senescence is a typical phenomenon of fibrosis, the anti-senescence effect of cromolyn on hepatocytes was confirmed by using β-galactosidase staining, which is a senescence index.
SA-β-gal (Senescence β-galactosidase) staining was performed by using the Senescence β-Galactosidase Staining Kit (Biovision, USA) according to the method provided by the manufacturer. Specifically, after washing with PBS, the cells were fixed by 2% formaldehyde and 0.2% glutaraldehyde in PBS for 15 minutes at room temperature. The fixed cells were washed with PBS, and incubated together with X-gal staining solution for 24 hours at 37° C. The cells were visualized, and photographs were taken with the Zeiss PALM laser capture microdissection microscope (Zeiss, Germany).

Structure (SMILES) | effect on proliferation at low level [1] | proliferation activity [1] | effect on proliferation at low level [2] | proliferation activity [2] | cytotoxicity (LDH release) ([3]; rat, 48 h) | cytotoxicity (LDH release) ([4]; human, 48 h) | released collagen [5] | released collagen [6] | production of TGF-β [7] | production of TGF-β [8] | motility of hepatocytes ([9]; absence of TGF-β, compared to untreated control) | inhibition of migration activity of hepatocytes in terms of migration distance ([9]; presence of TGF-β (2 ng/mL), 48 hours) [%] | expression of E-cadherin [10] | number of β-galactosidase-positive cells [11] | cytotoxicity (LDH release) ([3]; HSC-T6, increasing amounts, 48 hours (FIG. 2C)) | cytotoxicity (LDH release) ([4]; LX-2, increasing amounts, 48 hours (FIG. 2D))
O=C(O)c1cc(=O)c2c(OCC(O)COc3cccc4oc(C(=O)O)cc(=O)c34)cccc2o1 [cromolyn, cromoglicic acid] | did not show a significant effect | decrease | anti-proliferation effect was confirmed | decrease | no cytotoxicity except at the high level (10 μM) | no cytotoxicity except at the high level (10 μM) | significantly decreases | significantly decreases | inhibit the production of TGF-β in a concentration-dependent manner | inhibit the production of TGF-β in a concentration-dependent manner | did not show a significant difference | 15 | significantly inhibit the decrease in the expression of E-cadherin in a concentration-dependent manner | decrease in a concentration-dependent manner | – | –
C[C@H](CCC(=O)O)C[C@H](C)C[C@H](C)C(=O)/C=C(\O)[C@H](C)C[C@H](C)C/C=C/[C@@H](C)[C@@H](O)[C@@H](C)[C@@H](O)C[C@@H]1CC[C@@](C)([C@H]2CC[C@@](C)([C@@H](C)O)O2)O1 [ionomycin] | did not show a significant effect | decrease | anti-proliferation effect was confirmed | decrease | – | – | – | – | – | – | – | – | – | – | induce cell death in a concentration dependent manner | induce cell death in a concentration dependent manner
